Measured values taken from article PMC4775997, “Imidazopyridazine Inhibitors of Plasmodium falciparum Calcium-Dependent Protein Kinase 1 Also Target Cyclic GMP-Dependent Protein Kinase and Heat Shock Protein 90 To Kill the Parasite at Different Stages of Intracellular Development” (Antimicrobial Agents and Chemotherapy, 2016).
pEC50, pIC50, pKd: −log10 of the molar value. Where two headings read alike, the source gives them in different places.

Columns and labels:
[1] = target: PfHSP90 (Plasmodium falciparum, UniProt Q8IC05); assay: Tryptophan fluorescence binding, full-length PfHSP90
Protocol: (§1) The PCR product was cloned into pRSET-A (Life Technologies) between the BamHI and XhoI sites. Positive clones were confirmed by restriction digestion and sequencing. The clone was transformed into Escherichia coli Rosetta(pLysS) cells, and protein was expressed by induction with 0.1 mM isopropyl β-D-1-thiogalactopyranoside (IPTG) at 37°C for 2 h. PfHSP90 proteins were purified using Ni-nitrilotriacetic acid (NTA) affinity chromatography (Qiagen) as described in the manufacturer's protocol.
Tryptophan fluorescence analysis was performed using a PerkinElmer LS55 luminescence spectrometer. […] The binding buffer used for the reaction contained 50 mM Tris-HCl, pH 7.4, and 1 mM EDTA. Samples were excited at 280 nm, and tryptophan fluorescence measurements were carried out by scanning the emission spectrum in the wavelength range 300 to 400 nm. A maximum wavelength (λmax) of 346 nm was selected for all the calculations. The slit widths of excitation and emission were set at 2.5 and 5 nm, respectively. The difference in fluorescence intensity between protein alone and protein with various concentrations of 17-AAG or compound D was calculated and plotted against the different concentrations of the respective ligand used. The resultant hyperbolic curve was analyzed with GraphPad Prism software, using nonlinear regression analysis with single-site-specific binding as described previously ([32]).

[2] = target: T1, PfPKG T618Q (Plasmodium falciparum, UniProt Q8I719, T618Q); assay: biochemical; format: biochemical
T1 construct: plasmids (pTrcHisC) encoding full-length PfPKG and PfPKG T618Q with N-terminal His tags; His tag (N); made in house; host or cells: E. coli Rosetta2(DE3)

[3] = test system: P. falciparum 3D7; assay: Microscopic examination of Giemsa-stained smears (stage of action)
[4] = test system: 3D7 PKG T618Q; assay: microbe, parasite or virus in culture; format: cell-based, Plasmodium falciparum; settings: Plasmodium falciparum, 3D7, 96 h, read-out: Parasite inhibition EC50, 3D7 PKG T618Q
[5] = target: PfHSP90-NTD (Plasmodium falciparum, UniProt Q8IC05); assay: Tryptophan fluorescence binding, PfHSP90 N-terminal domain
Source text: PfCDPK1 and PfCDPK1 T145G proteins were produced using methods described elsewhere ([23]). The PfHSP90 N-terminal domain (NTD) comprises the first 223 amino acids of PfHSP90. This region was amplified from the full-length PfHSP90-pRSET-A construct ([32]) using the following primers: primer 7, […]; primer 8, […].
as §1, with “PfHSP90 proteins were purified using Ni-nitrilotriacetic acid (NTA) affinity chromatography (Qiagen) as described in the manufacturer's protocol.” left out
Tryptophan fluorescence analysis was performed using a PerkinElmer LS55 luminescence spectrometer. […] Samples were excited at 280 nm, and tryptophan fluorescence measurements were carried out by scanning the emission spectrum in the wavelength range 300 to 400 nm. […] The difference in fluorescence intensity between protein alone and protein with various concentrations of 17-AAG or compound D was calculated and plotted against the different concentrations of the respective ligand used. The resultant hyperbolic curve was analyzed with GraphPad Prism software, using nonlinear regression analysis with single-site-specific binding as described previously ([32]).

[6] = test system: trophozoite cell lysate; assay: Affinity purification of targets of biotinylated compound D, LC-MS/MS; format: binding, Plasmodium falciparum; settings: biotin linked to R1 group of compound D, streptavidin-agarose
Protocol: A total of 200 μl of high-capacity streptavidin agarose (Thermo Scientific) was resuspended in 1 ml of 250 μg/ml biotinylated compound D solution or a DMSO control. After incubation with mixing for 1 h at room temperature, unbound compound was removed by extensive washing with phosphate-buffered saline (PBS). The resin was incubated with trophozoite lysate containing 2 mg of protein in a total volume of 1.5 ml overnight at 4°C. The lysate was prepared by resuspending trophozoites in 20 mM Tris-HCl, pH 8.0, 10 mM MgCl2, 250 mM NaCl, 0.5 mM tris(2-carboxyethyl)phosphine (TCEP), 1× protein phosphatase inhibitor (Sigma-Aldrich), 1× complete protease inhibitors (Roche), and 0.1% Triton X-100 (Sigma-Aldrich). Insoluble proteins were removed by centrifugation at 15,000 × g for 20 min, and protein was quantitated using a detergent-compatible (DC) protein assay (Bio-Rad). […]
Proteins were run 4 mm into a 10% NuPAGE Bis-Tris gel (Life Technologies) and then excised using a clean scalpel blade. […] The resulting digests were analyzed by liquid chromatography-tandem mass spectrometry (LC-MS/MS) using an Ultimate 3000 nanoRSLC high-performance liquid chromatograph (HPLC), equipped with a 50-cm by 75-μm Acclaim Pepmap C18 column, coupled to a linear trap quadrupole (LTQ) Orbitrap Velos Pro equipped with a Nanoflex electrospray source (all Thermo Scientific). […]

[7] = test system: P. falciparum 3D7; assay: SYBR green I growth assay, wild-type parasites; format: cell-based, Plasmodium falciparum; settings: Plasmodium falciparum
[8] = target: T2, PfPKG (Plasmodium falciparum, UniProt Q8I719); assay: Microfluidic fluorescent shift assay of cGMP-dependent protein kinase activity; format: biochemical
T2 construct: plasmids (pTrcHisC) encoding full-length PfPKG and PfPKG T618Q with N-terminal His tags; His tag (N); made in house; host or cells: E. coli Rosetta2(DE3)

[9] = target: T3, CDPK1 T145G (Plasmodium falciparum, UniProt P62344, T145G); assay: ParM ADP biosensor assay, CDPK1 T145G; format: biochemical
T3 construct: PfCDPK1 and PfCDPK1 T145G proteins were produced using methods described elsewhere; made in house

[10] = test system: 3D7 CDPK1 T145G-HA; assay: SYBR green assay, 3D7 CDPK1 T145G-HA line; format: cell-based; settings: Plasmodium falciparum, 3D7, read-out: EC50, 3D7 CDPK1 T145G-HA
Protocol: (§2) Aliquots of 100 μl of P. falciparum cultures 24 h after erythrocyte invasion were transferred into 96-well culture dishes. Cells were incubated with inhibitors for 48 or 96 h (starting parasitemias were 0.3% and 0.03%, respectively). All drug treatments were carried out in duplicate at a final dimethyl sulfoxide (DMSO) concentration of 0.05%. After incubation, a modification of a previously described SYBR green assay was performed ([27]). Cells were lysed by the addition of 25 μl of buffer (20 mM Tris-HCl, pH 8.0, 2 mM EDTA, pH 8.0, 1.6% Triton X-100, 0.16% saponin, 10× SYBR green I [Life Technologies]). After incubation in the dark for 2 h, fluorescence of the samples was determined using a FLUOStar Omega plate reader (BMG Labtech) with excitation and emission filters of 485 nm and 520 nm, respectively. EC50s were calculated from a four-parameter logistical fit of the data using Prism software (GraphPad Software, Inc.).
(§3) Parasites expressing CDPK1 T145G and CDPK1 T145T were generated as described previously ([28]). Briefly, a region of homology to facilitate integration of the plasmid via single-crossover homologous recombination was amplified from P. falciparum 3D7 genomic DNA at 194 bp upstream of the ATG to bp 435 of the open reading frame using primers 1 and 2 for the wild-type (WT) version and primers 1 and 3 for the glycine version. […]

[11] = target: WT CDPK1 (Plasmodium falciparum, UniProt P62344); assay: biochemical
[12] = test system: 3D7 CDPK1 T145T-HA; assay: SYBR green assay, 3D7 CDPK1 T145T-HA line; format: cell-based; settings: Plasmodium falciparum, 3D7, read-out: EC50, 3D7 CDPK1 T145T-HA
Protocol: as §2, §3

T3 sequence (P62344 whole entry T145G): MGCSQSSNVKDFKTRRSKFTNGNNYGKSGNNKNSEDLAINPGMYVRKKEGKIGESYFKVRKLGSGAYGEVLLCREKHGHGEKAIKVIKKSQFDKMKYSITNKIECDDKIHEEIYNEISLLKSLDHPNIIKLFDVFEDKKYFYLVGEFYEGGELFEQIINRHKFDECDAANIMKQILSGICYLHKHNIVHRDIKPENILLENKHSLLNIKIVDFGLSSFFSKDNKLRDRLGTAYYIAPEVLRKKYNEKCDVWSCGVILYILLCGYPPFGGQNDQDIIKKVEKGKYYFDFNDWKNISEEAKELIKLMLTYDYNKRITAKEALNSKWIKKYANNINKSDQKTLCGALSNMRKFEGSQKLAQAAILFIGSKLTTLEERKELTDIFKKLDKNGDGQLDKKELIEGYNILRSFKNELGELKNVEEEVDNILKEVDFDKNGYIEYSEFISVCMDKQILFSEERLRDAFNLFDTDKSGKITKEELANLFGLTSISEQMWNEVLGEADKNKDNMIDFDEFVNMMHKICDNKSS
PfHSP90, sequence (Q8IC05 entry or part of it): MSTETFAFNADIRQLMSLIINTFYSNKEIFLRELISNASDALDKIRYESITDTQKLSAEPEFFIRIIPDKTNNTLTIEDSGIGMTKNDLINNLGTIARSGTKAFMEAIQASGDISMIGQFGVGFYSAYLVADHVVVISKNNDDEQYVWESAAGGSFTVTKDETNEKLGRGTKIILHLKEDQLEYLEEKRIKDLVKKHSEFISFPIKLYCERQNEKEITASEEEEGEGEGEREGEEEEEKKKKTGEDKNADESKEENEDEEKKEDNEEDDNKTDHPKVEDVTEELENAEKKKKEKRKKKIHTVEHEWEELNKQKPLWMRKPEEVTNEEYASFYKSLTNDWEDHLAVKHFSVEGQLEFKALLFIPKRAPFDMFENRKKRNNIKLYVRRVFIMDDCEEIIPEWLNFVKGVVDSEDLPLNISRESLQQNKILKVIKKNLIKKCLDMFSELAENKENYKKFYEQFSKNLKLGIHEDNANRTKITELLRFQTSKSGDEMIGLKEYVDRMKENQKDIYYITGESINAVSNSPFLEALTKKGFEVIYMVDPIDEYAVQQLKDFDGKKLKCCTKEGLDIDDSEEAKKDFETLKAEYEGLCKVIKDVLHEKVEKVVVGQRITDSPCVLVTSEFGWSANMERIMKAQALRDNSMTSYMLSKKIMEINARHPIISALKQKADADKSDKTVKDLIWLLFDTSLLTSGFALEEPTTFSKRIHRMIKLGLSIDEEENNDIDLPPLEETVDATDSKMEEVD
T1 sequence (Q8I719 whole entry T618Q): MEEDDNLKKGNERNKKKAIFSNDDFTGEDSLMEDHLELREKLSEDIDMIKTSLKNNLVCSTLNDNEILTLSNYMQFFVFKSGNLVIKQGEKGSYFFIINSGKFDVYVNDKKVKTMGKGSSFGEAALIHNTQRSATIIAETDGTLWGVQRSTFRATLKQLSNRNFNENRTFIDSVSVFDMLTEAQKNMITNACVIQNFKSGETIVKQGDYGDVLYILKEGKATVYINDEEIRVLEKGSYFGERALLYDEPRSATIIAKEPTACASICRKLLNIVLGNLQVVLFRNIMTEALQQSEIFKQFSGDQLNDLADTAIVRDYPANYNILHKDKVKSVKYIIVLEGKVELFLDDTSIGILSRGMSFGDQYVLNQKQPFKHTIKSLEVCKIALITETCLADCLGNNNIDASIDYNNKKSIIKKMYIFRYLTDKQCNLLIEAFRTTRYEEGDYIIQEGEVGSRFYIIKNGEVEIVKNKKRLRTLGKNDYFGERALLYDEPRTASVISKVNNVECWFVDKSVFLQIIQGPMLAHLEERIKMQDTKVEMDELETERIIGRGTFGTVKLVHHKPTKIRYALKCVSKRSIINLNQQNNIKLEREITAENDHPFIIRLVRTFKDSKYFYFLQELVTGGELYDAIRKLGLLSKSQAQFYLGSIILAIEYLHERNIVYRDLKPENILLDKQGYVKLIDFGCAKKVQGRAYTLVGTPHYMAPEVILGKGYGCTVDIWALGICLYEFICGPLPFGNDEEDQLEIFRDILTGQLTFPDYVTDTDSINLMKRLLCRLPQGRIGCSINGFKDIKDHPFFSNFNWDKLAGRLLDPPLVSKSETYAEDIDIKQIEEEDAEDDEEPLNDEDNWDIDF
WT CDPK1, sequence (P62344 whole entry): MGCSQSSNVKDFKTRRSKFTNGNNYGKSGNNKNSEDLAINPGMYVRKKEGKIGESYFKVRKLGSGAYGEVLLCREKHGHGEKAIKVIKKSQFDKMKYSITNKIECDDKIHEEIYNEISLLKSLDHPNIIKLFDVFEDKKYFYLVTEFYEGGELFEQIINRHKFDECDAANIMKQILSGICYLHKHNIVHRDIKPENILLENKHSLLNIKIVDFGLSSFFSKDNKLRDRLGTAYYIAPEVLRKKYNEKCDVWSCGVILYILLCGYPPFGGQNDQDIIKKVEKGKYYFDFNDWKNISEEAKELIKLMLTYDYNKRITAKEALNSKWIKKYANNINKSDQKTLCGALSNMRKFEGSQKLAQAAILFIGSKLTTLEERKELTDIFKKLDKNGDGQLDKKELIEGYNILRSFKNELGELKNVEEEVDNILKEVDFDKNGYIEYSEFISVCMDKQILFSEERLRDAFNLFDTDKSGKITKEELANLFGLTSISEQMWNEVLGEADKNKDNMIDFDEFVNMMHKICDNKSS
PfHSP90-NTD, sequence (Q8IC05 entry or part of it): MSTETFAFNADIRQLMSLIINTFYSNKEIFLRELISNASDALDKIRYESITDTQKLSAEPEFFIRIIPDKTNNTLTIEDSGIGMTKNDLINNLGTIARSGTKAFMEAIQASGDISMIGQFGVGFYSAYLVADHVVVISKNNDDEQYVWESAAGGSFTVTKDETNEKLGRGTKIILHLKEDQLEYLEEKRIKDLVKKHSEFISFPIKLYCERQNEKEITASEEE

| Structure (SMILES) | pKd [1] | pIC50 [2] | Stage of action (before or after DNA synthesis) ([3]; Table S1, ring-stage parasites, 10x EC50 for 48 h) | Developmental arrest seen in smears ([3]; parasites about 21 h after invasion, 48 h at 10 times the EC50 determined by FACS (compound C 0.3 μM, compound D 4 μM)) | Stage of action ([3]; ring stage parasites treated with 10 times the 96-h EC50 for 48 h) | pEC50 [4] | pKd [5] | Significant hit identified by LC-MS/MS [6] | pEC50 ([7]; 3D7, 48 h, Table S1, single experiment with duplicate samples, or mean of triplicate experiments (SD), read-out: EC50 48 hours) | pEC50 ([7]; 3D7, 96 h, Table S1, single experiment with duplicate samples, or mean of triplicate experiments (SD), read-out: EC50 96 hours) | pEC50 ([7]; 3D7, SYBR green I, 48 h incubation, mean of three independent experiments (SD), read-out: EC50 after treatment for 48 h) | pEC50 ([7]; 3D7, SYBR green I, 96 h incubation, mean of three independent experiments (SD), read-out: EC50 after treatment for 96 h) | pEC50 ([7]; 3D7, Table 2, SYBR green I, 96 h, single experiment, or mean (SD) of duplicate assays, read-out: Parasite inhibition EC50, 3D7) | pIC50 [8] | pIC50 [9] | Increase in sensitivity of CDPK1 T145G over wild-type enzyme ([9]; ratio of IC50s) | pEC50 [10] | pIC50 [11] | pEC50 [12] |
| --- | --- | --- | --- | --- | --- | --- | --- | --- | --- | --- | --- | --- | --- | --- | --- | --- | --- | --- | --- |
| CC(C)CCNc1ccc(-c2cnc3ccc(NC4CCN(C)CC4)nn23)cn1 [Compound 7] | 5.21 | 4.81 | trophozoite | failed to develop beyond late rings/early trophozoites | Trophozoite | 6.32 | 4.97 | HSP90 | 6.44 | 6.51 | 6.45 | 6.51 | 6.37 | 6.32 | – | – | – | – | – |
| CC(C)(C)n1nc(-c2cccc3ccccc23)c2c(N)ncnc21 [NA-PP1, 1-(1,1-dimethylethyl)-3-(1-naphthalenyl)-1H-pyrazolo[3,4-d]pyrimidin-4-amine] | – | – | – | – | – | – | – | – | – | – | – | – | – | – | 6.82 | 41 fold | 4.81 | 5.22 | 4.85 |
